≈ marks a conversion by molar mass, not a printed value. Where two headings read alike, the source gives them in different places.
Key:
[1] = Saturation solubility according to the concentration of cyclodextrin derivative; type: physicochemical; settings: for solubility at 6 h: aqueous with cosolvent or surfactant or cyclodextrin; for solubility at 6 h / solubility: thermodynamic from solid, water for injection, room temperature; for solubility: water for injection without cyclodextrin, water, 0 % W/V cyclodextrin derivative (Comparative Example, no cyclodextrin)
Method: 2-Hydroxypropyl-β-cyclodextrin (trade name: Cavitron) and sulfobutyl ether-β-cyclodextrin sodium salt (trade name: Captisol) as cyclodextrin compounds were each dissolved in water for injection at various concentrations as shown in Table 1. To this was added an excess amount of carbamic acid (R)-1-(2-chlorophenyl)-2-tetrazol-2-yl)ethyl ester, and the mixture was stirred at room temperature for 6 hours. The mixture was then filtered through a membrane filter to remove insolubles, and the amount of carbamic acid (R)-1-(2-chlorophenyl)-2-tetrazol-2-yl)ethyl ester in the filtrate was measured by high performance liquid chromatography, by which the saturation solubility was calculated. The column used in this experiment was a 75×4.6 mm, 3.5 μm C18 column, and the mobile phase was a mixed solution of 20% by volume of acetonitrile and 80% by volume of 10 mM phosphate buffer (pH 3.0). The flow rate was 2.0 mL/min, and detection was performed at 215 nm.
As a comparative example, the saturation solubility of carbamic acid (R)-1-(2-chlorophenyl)-2-tetrazol-2-yl)ethyl ester to which no cyclodextrin compound had been added was measured at room temperature.
The calculated saturation solubility values are shown in Table 1, and the same results are shown graphically in FIG. 1.

[2] = Saturation solubility according to pH change; type: physicochemical; settings: for solubility at 12 h: thermodynamic from solid
Method: The solubility of carbamic acid (R)-1-(2-chlorophenyl)-2-tetrazol-2-yl)ethyl ester in various aqueous (water) solvent conditions was measured: (1) purified water, (2) pH 1 hydrochloric acid solution, and (3) pH 3 to 8 phosphate buffer solution. Specifically, about 50 mg of carbamic acid (R)-1-(2-chlorophenyl)-2-tetrazol-2-yl)ethyl ester was placed in a suitable glass vial and 15 mL of solvent was added. The mixture was slowly stirred at room temperature for 12 hours on a rotary stirrer to reach equilibrium. Two samples for each aqueous solvent were transferred to a microtube, and centrifuged, and the pH was measured by taking the supernatant. After dilution with diluted solution for analysis, the concentration was analyzed using high performance liquid chromatography under the same conditions as in Experimental Example 1 above.

SMILES: NC(=O)O[C@@H](Cn1ncnn1)c1ccccc1Cl [carbamic acid (R)-1-(2-chlorophenyl)-2-tetrazol-2-yl)ethyl ester]
- Solubility when cyclodextrin compound was added, compared with comparative example without cyclodextrin ([1]; Cavitron or Captisol added, in words): significantly improved
- solubility at 6 h ([1]; Captisol 10 % W/V): 12800 µg/mL (≈ 47.8 mM)
- solubility at 6 h ([1]; Captisol 15 % W/V): 18000 µg/mL (≈ 67.2 mM)
- solubility at 6 h ([1]; Captisol 20 % W/V): 24500 µg/mL (≈ 91.5 mM)
- solubility at 6 h ([1]; Captisol 30 % W/V): 32500 µg/mL (≈ 121 mM)
- solubility at 6 h ([1]; Captisol 40 % W/V): 45100 µg/mL (≈ 168 mM)
- solubility at 6 h ([1]; Captisol (sulfobutyl ether-β-cyclodextrin sodium salt) 5 % W/V): 6700 µg/mL
- solubility at 6 h ([1]; Cavitron 10 % W/V): 13200 µg/mL (≈ 49.3 mM)
- solubility at 6 h ([1]; Cavitron 15 % W/V): 19800 µg/mL (≈ 74 mM)
- solubility at 6 h ([1]; Cavitron 20 % W/V): 27900 µg/mL (≈ 104 mM)
- solubility at 6 h ([1]; Cavitron 30 % W/V): 38600 µg/mL (≈ 144 mM)
- solubility at 6 h ([1]; Cavitron 40 % W/V): 49500 µg/mL (≈ 185 mM)
- solubility at 6 h ([1]; Cavitron (2-hydroxypropyl-β-cyclodextrin) 5 % W/V): 5500 µg/mL (≈ 20.5 mM)
- solubility ([1]; Captisol column): 1800 µg/mL (≈ 6.72 mM)
- solubility ([1]; Cavitron column): 1800 µg/mL (≈ 6.72 mM)
- solubility at 12 h ([2]; pH 1 hydrochloric acid solution, pH 1, simulated gastric fluid, pH 1 hydrochloric acid solution, room temperature, read-out: Concentration (saturation solubility), Mean): 1950 µg/mL (≈ 7.28 mM)
- solubility at 12 h ([2]; pH 1 hydrochloric acid solution, pH 1, simulated gastric fluid, pH 1 hydrochloric acid solution, room temperature, read-out: Concentration (saturation solubility), Test solution 1): 1940 µg/mL (≈ 7.25 mM)
- solubility at 12 h ([2]; pH 1 hydrochloric acid solution, pH 1, simulated gastric fluid, pH 1 hydrochloric acid solution, room temperature, read-out: Concentration (saturation solubility), Test solution 2): 1970 µg/mL (≈ 7.36 mM)
- Effect of change in pH on solubility ([2]; pH 1 to 8 aqueous solvents, in words): not greatly affected by the change in pH
- solubility at 12 h ([2]; pH 3.0 phosphate buffer solution, pH 3, aqueous buffer, pH 3.0 phosphate buffer solution, final pH 3.1, room temperature, read-out: Concentration (saturation solubility), Mean): 1870 µg/mL (≈ 6.99 mM)
- solubility at 12 h ([2]; pH 3.0 phosphate buffer solution, pH 3, aqueous buffer, pH 3.0 phosphate buffer solution, final pH 3.1, room temperature, read-out: Concentration (saturation solubility), Test solution 1): 1870 µg/mL (≈ 6.99 mM)
- solubility at 12 h ([2]; pH 3.0 phosphate buffer solution, pH 3, aqueous buffer, pH 3.0 phosphate buffer solution, final pH 3.1, room temperature, read-out: Concentration (saturation solubility), Test solution 2): 1860 µg/mL (≈ 6.95 mM)
- solubility at 12 h ([2]; pH 5.0 phosphate buffer solution, pH 5, aqueous buffer, pH 5.0 phosphate buffer solution, final pH 5.0, room temperature, read-out: Concentration (saturation solubility), Mean): 1910 µg/mL (≈ 7.14 mM)
- solubility at 12 h ([2]; pH 5.0 phosphate buffer solution, pH 5, aqueous buffer, pH 5.0 phosphate buffer solution, final pH 5.0, room temperature, read-out: Concentration (saturation solubility), Test solution 1): 1910 µg/mL (≈ 7.14 mM)
- solubility at 12 h ([2]; pH 5.0 phosphate buffer solution, pH 5, aqueous buffer, pH 5.0 phosphate buffer solution, final pH 5.0, room temperature, read-out: Concentration (saturation solubility), Test solution 2): 1910 µg/mL (≈ 7.14 mM)
- solubility at 12 h ([2]; pH 6.5 phosphate buffer solution, pH 6.5, aqueous buffer, pH 6.5 phosphate buffer solution, final pH 6.6, room temperature, read-out: Concentration (saturation solubility), Mean): 1860 µg/mL (≈ 6.95 mM)
- solubility at 12 h ([2]; pH 6.5 phosphate buffer solution, pH 6.5, aqueous buffer, pH 6.5 phosphate buffer solution, final pH 6.6, room temperature, read-out: Concentration (saturation solubility), Test solution 1): 1860 µg/mL (≈ 6.95 mM)
- solubility at 12 h ([2]; pH 6.5 phosphate buffer solution, pH 6.5, aqueous buffer, pH 6.5 phosphate buffer solution, final pH 6.6, room temperature, read-out: Concentration (saturation solubility), Test solution 2): 1860 µg/mL (≈ 6.95 mM)
- solubility at 12 h ([2]; pH 8.0 phosphate buffer solution, pH 8, aqueous buffer, pH 8.0 phosphate buffer solution, final pH 8.0, room temperature, read-out: Concentration (saturation solubility), Mean): 1810 µg/mL (≈ 6.76 mM)
- solubility at 12 h ([2]; pH 8.0 phosphate buffer solution, pH 8, aqueous buffer, pH 8.0 phosphate buffer solution, final pH 8.0, room temperature, read-out: Concentration (saturation solubility), Test solution 1): 1800 µg/mL (≈ 6.72 mM)
- solubility at 12 h ([2]; pH 8.0 phosphate buffer solution, pH 8, aqueous buffer, pH 8.0 phosphate buffer solution, final pH 8.0, room temperature, read-out: Concentration (saturation solubility), Test solution 2): 1820 µg/mL (≈ 6.8 mM)
- solubility at 12 h ([2]; purified water, pH 6.2, water, Purified water, final pH 6.2, room temperature, read-out: Concentration (saturation solubility), Mean): 1800 µg/mL (≈ 6.72 mM)
- solubility at 12 h ([2]; purified water, pH 6.2, water, Purified water, final pH 6.2, room temperature, read-out: Concentration (saturation solubility), Test solution 1): 1800 µg/mL (≈ 6.72 mM)
- solubility at 12 h ([2]; purified water, pH 6.2, water, Purified water, final pH 6.2, room temperature, read-out: Concentration (saturation solubility), Test solution 2): 1810 µg/mL (≈ 6.76 mM)

— patent publication US12070447B2, “Parenteral liquid preparation comprising carbamate compound” (SK BIOPHARMACEUTICALS CO., LTD., priority 2016, dated 2024)
